Calls of active or inactive are those of the source. The rule behind the calls is not given here.

From ChEMBL document CHEMBL1275379, “Indazolylpyrazolopyrimidine as highly potent B-Raf inhibitors with in vivo activity” (J Med Chem, 2010) come the findings set out here.

One data set has as its system A-375. The experiment in a line: Growth inhibition of human A375 cells after 4 days by MTT assay. The data set is classed as functional, cell-based. The settings on record: A-375, 96 h. In general terms: Tetrazolium dyes change colour on reduction, which living cells bring about.
The target in data set [1] is Serine/threonine-protein kinase B-raf (Homo sapiens, UniProt P15056). Briefly: Inhibition of BRAF.
Chain of Serine/threonine-protein kinase B-raf (P15056 whole entry): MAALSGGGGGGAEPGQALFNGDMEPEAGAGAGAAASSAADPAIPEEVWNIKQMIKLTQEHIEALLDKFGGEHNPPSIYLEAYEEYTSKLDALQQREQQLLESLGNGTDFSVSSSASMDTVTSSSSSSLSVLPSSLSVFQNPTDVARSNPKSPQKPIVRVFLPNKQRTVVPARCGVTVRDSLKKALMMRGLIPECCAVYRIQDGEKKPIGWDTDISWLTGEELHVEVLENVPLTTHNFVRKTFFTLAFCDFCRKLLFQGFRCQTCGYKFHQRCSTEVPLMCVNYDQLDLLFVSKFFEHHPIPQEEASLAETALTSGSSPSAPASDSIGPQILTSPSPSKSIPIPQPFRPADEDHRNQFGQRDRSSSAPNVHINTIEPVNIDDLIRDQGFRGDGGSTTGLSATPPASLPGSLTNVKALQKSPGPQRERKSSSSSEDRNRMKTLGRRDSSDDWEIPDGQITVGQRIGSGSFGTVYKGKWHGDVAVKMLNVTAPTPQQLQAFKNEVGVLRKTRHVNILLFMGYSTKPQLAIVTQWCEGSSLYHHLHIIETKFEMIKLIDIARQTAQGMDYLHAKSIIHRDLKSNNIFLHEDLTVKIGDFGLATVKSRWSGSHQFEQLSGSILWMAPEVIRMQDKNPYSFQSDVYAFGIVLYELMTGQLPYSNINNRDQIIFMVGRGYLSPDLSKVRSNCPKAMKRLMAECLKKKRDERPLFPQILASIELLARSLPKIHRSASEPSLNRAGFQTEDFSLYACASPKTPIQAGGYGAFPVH
Data set [2] in a line: Half life in nude mouse liver microsomes. The data set is classed as ADME, Microsome.
Data set [3] can be described thus: Half life in human liver microsomes. It is filed as ADME, Microsome.
Data set [4] relates to Serine/threonine-protein kinase B-raf (Homo sapiens), P15056 [V600E]. The experiment in a line: Inhibition of BRAF V600E mutant in human A375 cells assessed as reduction of ERK phosphorylation. It is filed as cell-based. The settings on record: A-375.
Chain of Serine/threonine-protein kinase B-raf (Homo sapiens), P15056 [V600E] (P15056 whole entry V600E): as the sequence (P15056 whole entry) above, with V600E counted along it

With `Cc1cc(N2C[C@@H]3C[C@H]2CN3C)ccc1-c1ccnc2c(-c3ccc(F)c4[nH]ncc34)c(-c3ccncc3)nn12`, the IC50 in the data set on A-375 was 188 nM; in data set [1], under 0.32 nM.
For the molecule `CN1C[C@@H]2C[C@H]1CN2c1ccc(-c2ccnc3c(-c4cccc5[nH]ncc45)c(-c4ccncc4)nn23)c(F)c1F`, the concentration for half-maximal inhibition (IC50) worked out at 107 nM in the data set on A-375 and 0.61 nM in data set [1].
The molecule `CN1C[C@@H]2C[C@H]1CN2c1ccc(-c2ccnc3c(-c4cccc5[nH]ncc45)c(-c4ccncc4)nn23)c(Br)c1` showed an IC50 in data set [1] of under 0.32 nM.
For `CN1C[C@@H]2C[C@H]1CN2c1ccc(-c2ccnc3c(-c4cccc5[nH]ncc45)c(-c4ccncc4)nn23)c2ccccc12`, the IC50 with A-375 worked out at 25000 nM; in data set [1] it was 1 nM.
In the same order, the values of `c1cc(-c2c(-c3ccncc3)nn3c(-c4ccc(CN5C[C@@H]6C[C@H]5CN6)cc4)ccnc23)c2cn[nH]c2c1` are 9480 nM and 2.3 nM.
`CC(C)CN1C[C@@H]2C[C@H]1CN2c1cc(F)c(-c2ccnc3c(-c4cccc5[nH]ncc45)c(-c4ccncc4)nn23)c(F)c1`: the half-life was found to be 4 min in data set [2] and 3 min in data set [3]. Moreover, the IC50 in the data set with A-375 is 89 nM; in data set [1], under 0.32 nM.
In the case of `CN1C[C@@H]2C[C@H]1CN2c1ccc(-c2ccnc3c(-c4ccc(F)c5[nH]ncc45)c(-c4ccncc4)nn23)cc1`, the IC50 in the data set with A-375 was found to be 68 nM; in data set [1], 0.5 nM.
As to `CN1C[C@@H]2C[C@H]1CN2c1ccc(-c2ccnc3c(-c4cccc5[nH]ncc45)c(-c4ccncc4)nn23)cc1`, the IC50 in the data set with A-375 stood at 202 nM; in data set [1], 1.2 nM.
Regarding `CCN1C[C@@H]2C[C@H]1CN2c1cc(F)c(-c2ccnc3c(-c4cccc5[nH]ncc45)c(-c4ccncc4)nn23)c(F)c1`, the IC50 in the data set with A-375 is 56 nM; in data set [1], under 0.32 nM. Also, the half-life in data set [3] is 11 min.
The molecule `CN1C[C@@H]2C[C@H]1CN2c1ccc(-c2ccnc3c(-c4cccc(O)c4)c(-c4ccncc4)nn23)cc1` returned an IC50 in the data set on A-375 of 77 nM. Also, the inhibition result in data set [4] was “Active”.
Turning to `CN1C[C@@H]2CC[C@H]1CN2c1ccc(-c2ccnc3c(-c4cccc5[nH]ncc45)c(-c4ccncc4)nn23)cc1`, the IC50 with A-375 is 185 nM; in data set [1], 0.71 nM.
For `Fc1cc(CN2C[C@H]3C[C@@H]2CO3)ccc1-c1ccnc2c(-c3cccc4[nH]ncc34)c(-c3ccncc3)nn12`, the figures for the 50% inhibitory concentration (IC50) (in the data set with A-375; in data set [1]) were 78 nM and 0.52 nM, respectively.
For the molecule `CN1C[C@@H]2C[C@H]1CN2c1ccc(-c2ccnc3c(-c4ccc(F)c5[nH]ncc45)c(-c4ccncc4)nn23)c(F)c1`, the figures for the IC50 (with A-375; in data set [1]) were 33 nM and under 0.1 nM, respectively.
`Fc1cc(CN2C[C@@H]3C[C@H]2CO3)ccc1-c1ccnc2c(-c3cccc4[nH]ncc34)c(-c3ccncc3)nn12`: the IC50 was 268 nM in the data set on A-375 and 1.2 nM in data set [1].
With `c1cc(-c2c(-c3ccncc3)nn3c(-c4ccc(CN5C[C@@H]6C[C@H]5CO6)cc4)ccnc23)c2cn[nH]c2c1`, the IC50 with A-375 was determined as 945 nM.
Take `CN1C[C@@H]2C[C@H]1CN2c1cccc(-c2ccnc3c(-c4cccc5[nH]ncc45)c(-c4ccncc4)nn23)c1`: in the data set with A-375, the concentration for half-maximal inhibition (IC50) was 1400 nM.
In the case of `CN(C)c1cc(N2C[C@@H]3C[C@H]2CN3C)ccc1-c1ccnc2c(-c3cccc4[nH]ncc34)c(-c3ccncc3)nn12`, the IC50 in the data set with A-375 is 1850 nM.
`CN1C[C@@H]2C[C@H]1CN2c1ccc(-c2ccnc3c(-c4cccc5[nH]ncc45)c(-c4ccncc4)nn23)cc1C(F)(F)F`: it took 273 nM to reach half-maximal inhibition with A-375 (IC50).
For `CN1C[C@@H]2CC[C@H]1CN2c1ccc(-c2ccnc3c(-c4cccc5[nH]ncc45)c(-c4ccncc4)nn23)c(F)c1`, the results for the IC50 (with A-375; in data set [1]) were 118 nM and 0.41 nM, respectively.
As to `CC(C)N1C[C@@H]2C[C@H]1CN2c1cc(F)c(-c2ccnc3c(-c4cccc5[nH]ncc45)c(-c4ccncc4)nn23)c(F)c1`, the half-life in data set [2] was determined as 17 min; in data set [3], 5 min. For the same molecule, the IC50 is 55 nM in the data set on A-375 and under 0.32 nM in data set [1].
With `Cc1cc(N2C[C@@H]3C[C@H]2CN3C)ccc1-c1ccnc2c(-c3cccc4[nH]ncc34)c(-c3ccncc3)nn12`, the figures for the IC50 (with A-375; in data set [1]) were 137 nM and 0.51 nM, respectively.
For `CN1C[C@@H]2C[C@H]1CN2c1cc(F)c(-c2ccnc3c(-c4ccc(F)c5[nH]ncc45)c(-c4ccncc4)nn23)c(F)c1`, the IC50 with A-375 worked out at 17 nM; in data set [1], 0.11 nM.
Consider `CN1C[C@@H]2C[C@H]1CN2c1ccc(-c2ccnc3c(-c4cccc5[nH]ncc45)c(-c4ccncc4)nn23)c(Cl)c1`, for which the concentration for half-maximal inhibition (IC50) with A-375 was 39 nM; in data set [1], under 0.1 nM.
Take `CN1C[C@@H]2C[C@H]1CN2c1ccc(-c2ccnc3c(-c4cccc5[nH]ncc45)c(-c4ccncc4)nn23)c(F)c1`: the results for the half-life in data set [2] and in data set [3] were over 30 min and 17 min, respectively. In addition, the values for the IC50 (with A-375; in data set [1]) were 44 nM and 0.23 nM, respectively. Besides, the inhibition result in data set [4] was “Active”.
In the data set on A-375, `CN1C[C@@H]2C[C@H]1CN2c1c(F)cc(-c2ccnc3c(-c4cccc5[nH]ncc45)c(-c4ccncc4)nn23)cc1F` returned an IC50 of 1250 nM.
Take `Fc1cc(N2C[C@@H]3C[C@H]2CN3C2CCC2)cc(F)c1-c1ccnc2c(-c3cccc4[nH]ncc34)c(-c3ccncc3)nn12`: the half-life in data set [2] was 5 min; in data set [3] it was 3 min. In addition, the half-maximal inhibitory concentration (IC50) in the data set on A-375 is 78 nM; in data set [1], under 0.32 nM.
For the molecule `CN1C[C@@H]2C[C@H]1CN2c1c(F)c(F)c(-c2ccnc3c(-c4cccc5[nH]ncc45)c(-c4ccncc4)nn23)c(F)c1F`, the IC50 in the data set with A-375 worked out at 70 nM; in data set [1] it was 0.35 nM.
On to `Fc1cc(CN2C3COCC2COC3)ccc1-c1ccnc2c(-c3cccc4[nH]ncc34)c(-c3ccncc3)nn12`, for which the IC50 with A-375 is 304 nM; in data set [1] it was 0.77 nM.
With `CN1C[C@@H]2C[C@H]1CN2c1cc(F)c(-c2ccnc3c(-c4cccc5[nH]ncc45)c(-c4ccncc4)nn23)cc1F`, the IC50 in the data set on A-375 is 87 nM; in data set [1], 0.38 nM.

A word on the IC50: it is the concentration that inhibits the measured activity by half. As usually defined, the half-life is the time in which the quantity being followed falls by half. Read a high half-life as slow decline.
